Data from patent US10774068B2, “Composition and methods for inhibiting mammalian sterile 20-like kinase 1” (The Scripps Research Institute, priority 2015, dated 2020).
Where two headings read alike, the source gives them in different places.

Experiments:
human islets [1] = assay: Cytokine (IL-1β and IFN-γ) induced apoptotic activity in human islets; format: cell-based; details: FIG. 9
Beta cell = Beta cell apoptosis with increasing concentrations of neratinib (FIG. 3); format: cell-based
T1D model mice = T1D model mice treated with streptozotocin (STZ); format: in vivo
MST1 [2] = molecular target: T1, MST1 (Homo sapiens (Human), UniProt Q13043); assay: MST1 kinase activity; format: biochemical
T1 sequence (Q13043 whole entry): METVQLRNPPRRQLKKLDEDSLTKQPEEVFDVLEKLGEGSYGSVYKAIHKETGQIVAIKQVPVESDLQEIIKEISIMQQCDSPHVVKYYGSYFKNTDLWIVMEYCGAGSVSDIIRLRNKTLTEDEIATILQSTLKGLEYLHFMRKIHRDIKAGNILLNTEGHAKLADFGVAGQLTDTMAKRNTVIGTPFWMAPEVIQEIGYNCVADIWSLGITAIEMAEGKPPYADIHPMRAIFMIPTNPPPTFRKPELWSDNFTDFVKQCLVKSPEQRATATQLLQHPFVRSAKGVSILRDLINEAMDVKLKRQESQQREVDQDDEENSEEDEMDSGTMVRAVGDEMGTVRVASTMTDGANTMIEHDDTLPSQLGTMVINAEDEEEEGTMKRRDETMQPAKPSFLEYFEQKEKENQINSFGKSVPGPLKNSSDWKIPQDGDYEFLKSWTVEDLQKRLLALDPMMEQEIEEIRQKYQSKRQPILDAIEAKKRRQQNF

human islets [3] = assay: High glucose/palmitate induced apoptotic activity in human islets; parameters: MST1 phosphorylation (pMST1): dose or concentration left out as unconfirmed; details: HG/Pal, FIG. 8
Description: Freshly isolated human islets from a single donor were exposed to high glucose and palmitate (HG/Pal) to induce apoptosis.

MST1 [4] = molecular target: T1, MST1; assay: MST1 biochemical LanthaScreen Eu Kinase Binding Assay; details: read-out: Kinase Binding assay-MST1 IC50
Description: (§1) MST1 and MST2 biochemical LanthaScreen Eu Kinase Binding Assay was based on the binding and displacement of kinase tracer to the kinase of interest. Compounds in 1000×DMSO stock solution was dispensed using automated dispensing system (Labcyte) to 384 well Corning Microplate at 15 nL, 5 uL of Kinase buffer A was added to each well. Plates were shaken and incubated for 1 min to ensure well dissolution of compounds.

MST2 = MST2 (Homo sapiens (Human), UniProt Q13188); assay: MST2 biochemical LanthaScreen Eu Kinase Binding Assay
Chain of MST2 (Q13188 whole entry): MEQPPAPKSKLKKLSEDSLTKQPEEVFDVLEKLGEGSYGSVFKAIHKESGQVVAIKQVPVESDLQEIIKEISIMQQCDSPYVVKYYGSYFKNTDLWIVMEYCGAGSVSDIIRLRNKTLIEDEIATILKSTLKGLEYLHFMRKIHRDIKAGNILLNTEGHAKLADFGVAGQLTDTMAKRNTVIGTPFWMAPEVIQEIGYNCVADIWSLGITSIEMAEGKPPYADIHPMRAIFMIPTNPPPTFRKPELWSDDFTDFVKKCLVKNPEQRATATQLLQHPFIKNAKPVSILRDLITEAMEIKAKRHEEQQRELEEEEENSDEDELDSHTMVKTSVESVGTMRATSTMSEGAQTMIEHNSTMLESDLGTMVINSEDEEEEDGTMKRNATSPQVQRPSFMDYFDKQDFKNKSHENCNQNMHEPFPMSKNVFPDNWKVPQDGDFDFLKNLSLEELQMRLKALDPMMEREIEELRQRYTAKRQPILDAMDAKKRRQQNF
Description: as §1

[5] = read-out: Kinase Binding assay-MST2 IC50

IC50 (MST2; [5]) [nM]	SMILES	IC50 (MST1 [4]) [nM]	IC50 (MST2) [nM]	also measured
	CCOc1cc2ncc(C#N)c(Nc3ccc(OCc4ccccn4)c(Cl)c3)c2cc1NC(=O)/C=C/CN(C)C [neratinib]			Caspase 3 cleavage (human islets [1]; 10 μM neratinib): inhibited; MST1 phosphorylation (human islets [1]; 10 μM neratinib): inhibited; Caspase 3 cleavage (human islets [1]; 25 μM neratinib): inhibited; MST1 phosphorylation (human islets [1]; 25 μM neratinib): inhibited; Beta cell apoptosis (Beta cell): decrease; hyperglycemia (T1D model mice; T1D model mice treated with STZ, FIG. 4): attenuated; responses to acute glucose challenge (T1D model mice; T1D model mice, FIG. 5): improved; blood glucose (T1D model mice; T1D model mice, FIG. 6): reduced; serum insulin (T1D model mice; T1D model mice, FIG. 7): increased; MST1 kinase activity (MST1 [2]): inhibitor; induction of cleaved caspase 3 (Cl Casp3) (human islets [3]; 25 M neratinib (so in the source)): inhibited; MST1 phosphorylation (pMST1) (human islets [3]): inhibited
< 100	CCOc1cc2ncc(C#N)c(Nc3ccc(OCc4ncccc4C)cc3Cl)c2cc1NC(=O)CCCN(C)C [Example 25, N-(4-((2-chloro-4-((3-methyl-pyridin-2-yl)methoxy)phenyl)amino)-3-cyano-7-ethoxyquinolin-6-yl)-4-(dimethylamino)butanamide]	< 100		
	CCOc1cc2ncc(C#N)c(Nc3ccc(OCc4nccn4CC)c(Cl)c3)c2cc1NC(=O)CCCN(C)C [Example 38]	100 to 1000	100 to 1000	
	CCOc1cc2ncc(C#N)c(Nc3ccc(OCc4ccccn4)c(Cl)c3)c2cc1NC(=O)CCCOC [Example 102]	100 to 1000	100 to 1000	
< 100	CCOc1cc2ncc(C#N)c(Nc3cc(Cl)c(OCc4ncccc4C)cc3Cl)c2cc1NC(=O)CCCN(C)C [Example 75]	< 100		
< 100	CCOc1cc2ncc(C#N)c(Nc3ccc(OCc4ncccc4C)cc3F)c2cc1NC(=O)CCCN(C)C [Example 23]	< 100		
	CCOc1cc2ncc(C#N)c(Nc3ccc(OCc4cnc5c(c4)OCCO5)c(Cl)c3)c2cc1NC(=O)CCCN(C)C [Example 43]	100 to 1000	1000 to 10000	

SMILES	IC50 (MST2; [5]) [nM]	IC50 (MST1 [4]) [nM]	IC50 (MST2) [nM]	also measured
CCOc1cc2ncc(C#N)c(Nc3ccc(OCc4cccc(Br)n4)c(Cl)c3)c2cc1NC(=O)CCCN(C)C [Example 3]	< 100	< 100		
